# Assays:
# ERK1/2 = ERK1/2 phosphorylation in dermal fibroblasts, Western blot; assay type: cell-based, human; details: 100 μg/ml
# Protocol: Cells were harvested by Trypsin/EDTA and lysed with cell lysis buffer containing 50 mM Tris-HCl (pH7.40), 150 mM NaCl, 10 mM EDTA, 5 mM EGTA, 1% TritonX-100™, 0.5% Igepal CA-630, 0.025% NaN3 and protease inhibitor cocktail (Sigma™). Cell debris was removed by centrifugation at 20,000×g for 10 minutes. The protein concentration in supernatant was determined using the MicroBCA™ method (Pierce™, Rockford, Ill.). Proteins in supernatant were mixed with protein sample loading buffer (final concentration: 60 mM Tris-HCl (pH 6.80), 2% SDS, 10% glycerol, 1.5% β-mercaptoethanol, 0.002% bromophenol blue) and size fractioned by 10% of SDS-polyacrylamide gel. After proteins were transferred onto nitrocellulose membrane by iBlot™ (Invitrogen Life Technologies™), non-specific binding were blocked with phosphate buffer saline twenty 20 (PBS-T) containing 5% skim milk for 1 hour. The membrane was then incubated with primary antibody overnight. After incubation with a secondary antibody for 1 hour, protein bands were visualized by an enhanced chemiluminescence (ECL™) detection system (Santa Cruz Biotechnology™, Santa Cruz, Calif.). […]
# MMPs = test: MMP activity in conditioned media of fibroblasts, SensoLyte 520 generic MMP assay (FRET); assay type: cell-based, human; details: 50 μg/ml, 48 hours
# Protocol: The activity of MMPs was assessed using a F-FAM/QXL™ 520 fluorescence resonance energy transfer (FRET) peptide as the MMP substrate (SensoLyte 520™ generic MMP assay kit, AnaSpec, Inc.™, Fremont, Calif.) according to the manufacturer's protocol. In brief, cells were treated with or without 50 μg/ml of kynurenine for 48 hours. Conditioned media were collected and incubated with 1 mM of APMA (4-aminophenyl-mercuric acetate, in component C, AnaSpect™) at 37° C. for 3 hrs. After activation MMPs with APMA, 50 μl/well in 96-well plate of conditioned media was mixed with 50 μl of MMP substrate solution. After incubated at room temperature for 60 minutes, the fluorescence intensity at EX/EM=490 nm/520 nm in each sample including the substrate control were measured using Infinite F500™ fluorescence microplate reader (Tecan Group Ltd™, Morrisville, N.C.).
# synoviocytes = test: MMP-1 expression in synoviocytes, Western blot; assay type: cell-based, human; details: 12.5 μg/ml to 150 μg/ml, 48 hours
# Protocol: Synoviocytes were obtained by enzymatic digestion of synovial membrane from patients with rheumatoid arthritis during joint replacement with 1 mg/ml collagenase (Sigma™) in RPMI1640 (Invitrogen Life Technologies™) for 4 hours at 37° C. Dissociated cells were plated in synoviocyte growth medium (Cell Applications Inc.™, San Diego, Calif.) supplemented with penicillin G sodium (100 U/mL), streptomycin sulfate (100 μg/mL), and amphotericin B (0.25 μg/mL).
# Similarly, other cells such as synoviocytes, IMR-90, keratinocytes, UMSCC and A549 were treated with kynurenine at concentrations of 12.5 to 150 μg/ml in appropriate media for each cell type as described above for 48 hours. Cells were then harvested for western blot analysis.
# Cells were harvested by Trypsin/EDTA and lysed with cell lysis buffer containing 50 mM Tris-HCl (pH7.40), 150 mM NaCl, 10 mM EDTA, 5 mM EGTA, 1% TritonX-100™, 0.5% Igepal CA-630, 0.025% NaN3 and protease inhibitor cocktail (Sigma™). Cell debris was removed by centrifugation at 20,000×g for 10 minutes. The protein concentration in supernatant was determined using the MicroBCA™ method (Pierce™, Rockford, Ill.). Proteins in supernatant were mixed with protein sample loading buffer (final concentration: 60 mM Tris-HCl (pH 6.80), 2% SDS, 10% glycerol, 1.5% β-mercaptoethanol, 0.002% bromophenol blue) and size fractioned by 10% of SDS-polyacrylamide gel. […]
# human dermal fibroblasts = test: MTT proliferation assay of human dermal fibroblasts; assay type: cell-based; details: up to 150 μg/ml, 48 hours
# Protocol: The effect of kynurenine on human dermal fibroblast proliferation was detected by MTT [3-(4,5-Dimethylthiazol-2-yl)-2,5-diphenyltetrazolium bromide] assay. In brief, 10,000 cells were seeded on a 24 well-plate and incubated with different concentrations of kynurenine for 48 hours. Media were removed and 0.2 ml of MTT (5 mg/ml in DMEM containing 2% FBS) was added. Cells were incubated with MIT for 4 hours. After washing 3 times with PBS, 0.2 ml of DMSO was added to dissolve the crystals. Absorbance was measured at 570 nm.
# MMP-1 = MMP-1 expression in human dermal fibroblasts, Western blot; assay type: cell-based; details: for MMP-1 expression: 48 hours
# Protocol: Cells were then harvested after 48 hours and western blot analysis was performed.
# Cells were then harvested by trypsinization and western blot analysis was performed.
# Cells were harvested by Trypsin/EDTA and lysed with cell lysis buffer containing 50 mM Tris-HCl (pH7.40), 150 mM NaCl, 10 mM EDTA, 5 mM EGTA, 1% TritonX-100™, 0.5% Igepal CA-630, 0.025% NaN3 and protease inhibitor cocktail (Sigma™). Cell debris was removed by centrifugation at 20,000×g for 10 minutes. The protein concentration in supernatant was determined using the MicroBCA™ method (Pierce™, Rockford, Ill.). Proteins in supernatant were mixed with protein sample loading buffer (final concentration: 60 mM Tris-HCl (pH 6.80), 2% SDS, 10% glycerol, 1.5% β-mercaptoethanol, 0.002% bromophenol blue) and size fractioned by 10% of SDS-polyacrylamide gel. After proteins were transferred onto nitrocellulose membrane by iBlot™ (Invitrogen Life Technologies™), non-specific binding were blocked with phosphate buffer saline twenty 20 (PBS-T) containing 5% skim milk for 1 hour. The membrane was then incubated with primary antibody overnight. After incubation with a secondary antibody for 1 hour, protein bands were visualized by an enhanced chemiluminescence (ECL™) detection system (Santa Cruz Biotechnology™, Santa Cruz, Calif.). The primary antibodies used in this study were: mouse monoclonal anti-human MMP-1 (R&D Systems™, Minneapolis, Minn.), mouse monoclonal anti-human MMP-3 (R&D System™), rabbit monoclonal anti-human MMP-2 (Epitomics™, Burlingame, Calif.), rabbit polyclonal anti-phospho-MEK1/2 (Ser217/221™) (Cell Signaling Technology™, Danvers, Mass.), rabbit polyclonal anti-phospho-p44/42 MAPK (Thr202/Tyr204) (Cell Signaling Technology™), monoclonal anti-β-actin (Sigma™), and mouse anti-type-1 procollagen (Developmental Studies Hybridoma Bank™, Iowa City, Iowa). The secondary antibodies were either goat anti-mouse IgG (H+L) HPR conjugate or goat anti-rabbit IgG (H+L) HPR conjugate (Bio-rad Laboratory™ (Mississauga, ON, Canada). Secondary antibodies were used at a concentration of 1:3000.
compound,measurement,setting,value
Nc1ccccc1C(=O)CC(N)C(=O)O (racemic) [kynurenine],time of peak ERK1/2 activation,ERK1/2,8 h
same,ERK1/2 phosphorylation,ERK1/2; different times,phosphorylated
same,mean activity of MMPs in conditioned media versus control media,MMPs,significantly higher
same,MMP-1 expression,synoviocytes,up-regulated
same,fibroblast proliferation (MTT),human dermal fibroblasts,no significant effect
same,MMP1 protein expression 48 hours after treatment removal,"MMP-1; 100 μg/ml for 48 hours, then 48 hours after removal",gradually reduced to normal levels
same,MMP1 expression versus untreated cells after treatment removal,"MMP-1; 100 μg/ml for 48 hours, then another 24 hours after removal",remained significantly higher
same,MMP1 expression,"MMP-1; 100 μg/ml, at 48 hours after treatment",marked increase
same,MMP-1 expression,MMP-1; 25-150 μg/ml,significantly increased
same,concentration that could stimulate MMP-1 expression (as little as),"MMP-1; dermal fibroblasts, data not shown",12.5 µg/mL
same,MMP-1 expression,"MMP-1; kynurenine isoforms, 50 μg/ml",increase

# Reference: patent publication US9737523B2, “Anti-fibrogenic compounds, methods and uses thereof” (priority 2013, dated 2017)
